Assay results as given in patent US9718790B2, “Triazine derivative and pharmaceutical composition having an analgesic activity comprising the same” (SHIONOGI & CO., LTD., priority 2010, dated 2017).
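Note: stimulus was 50 nM ATP with fluorescence followed for 3 min, and the response per well was peak post-ATP fluorescence divided by the reading at measurement start.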

The compounds below were run against human P2X3 receptor (Homo sapiens (Human), UniProt P56373) (assay: Evaluation of human P2X3 receptor inhibitory activity (Fluo-3 calcium fluorescence, FDSS 3000, ATP stimulation)). Settings: C6BU-1 cells stably expressing human P2X3 receptor.
Sequence of human P2X3 receptor (P56373 whole entry): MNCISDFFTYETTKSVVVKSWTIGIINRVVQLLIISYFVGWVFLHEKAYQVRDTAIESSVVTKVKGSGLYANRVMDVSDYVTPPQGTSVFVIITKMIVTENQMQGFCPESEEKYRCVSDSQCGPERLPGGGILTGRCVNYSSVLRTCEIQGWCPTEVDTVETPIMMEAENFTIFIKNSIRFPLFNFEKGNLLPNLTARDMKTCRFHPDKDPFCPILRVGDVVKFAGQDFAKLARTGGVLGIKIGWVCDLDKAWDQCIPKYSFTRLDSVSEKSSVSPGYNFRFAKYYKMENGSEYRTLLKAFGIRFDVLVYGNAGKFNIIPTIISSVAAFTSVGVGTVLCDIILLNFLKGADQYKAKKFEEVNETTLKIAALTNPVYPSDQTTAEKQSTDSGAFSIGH
Type: cell-based
In the case of `CCn1c(=O)[nH]/c(=N\c2ccc(Oc3ccccc3C(=O)OC)cc2)n(Cc2ccc(Cl)cc2)c1=O` [Compound I-1988], the IC50 is reported as 391 nM. Work on `CCOC(=O)c1sc(Oc2ccc(/N=c3\[nH]c(=O)n(CC)c(=O)n3Cc3ccc(Cl)cc3)cc2)nc1C` [Compound I-2147] yielded an IC50 of 14 nM. In the case of `CC(C)Oc1ccc(/N=c2\[nH]c(=O)n(C(C)(C)C(=O)O)c(=O)n2Cc2ccc(Cl)cc2)cc1Cl` [Compound I-0651], the IC50 is reported as 97 nM. `Cc1[nH]c2ccc(/N=c3\[nH]c(=O)n(CCC(N)=O)c(=O)n3Cc3ccc(Cl)cc3)cc2c1C` [Compound I-1966] gave an IC50 of 11 nM. In the case of `CCn1c(=O)[nH]/c(=N\c2ccc(Oc3ccc(C(=O)OC)nc3)cc2)n(Cc2ccc(Cl)cc2)c1=O` [Compound I-2105], the IC50 is reported as 1 nM. `COC(=O)[C@@H](C)Cn1c(=O)[nH]/c(=N\c2ccc(COC(C)C)cc2)n(Cc2ccc(Cl)cc2)c1=O` [Compound I-0656] gave an IC50 of 100 nM. `COC(=O)[C@@H](C)Cn1c(=O)[nH]/c(=N\c2ccc(OCC(C)C)cc2)n(Cc2ccc(Cl)cc2)c1=O` [Compound I-0749] showed an IC50 of 27 nM. `O=c1[nH]c(=O)n(Cc2ccc(Cl)cc2)/c(=N/c2ccc(Oc3ccnc(CO)c3)cc2)[nH]1` [Compound I-1962] showed an IC50 of 65 nM. Work on `CCn1c(=O)[nH]/c(=N\c2ccc(Oc3cncc(C(=O)O)c3)cc2)n(CC2CCC(C)(C)CC2)c1=O` [Compound I-2207] yielded an IC50 of 69 nM. For `CC[C@H](C)Oc1ccc(/N=c2\[nH]c(=O)n(C[C@H](C)C(=O)OC)c(=O)n2Cc2ccc(Cl)cc2)cc1` [Compound I-0728], the IC50 was 14 nM. `CNC(=O)C1(Cn2c(=O)[nH]/c(=N\c3ccc(OC(C)C)c(C)c3)n(Cc3ccc(Cl)cc3)c2=O)CC1` [Compound I-0703] showed an IC50 of 15 nM. With `CC(C)Oc1ccc(/N=c2\[nH]c(=O)n(CC(=O)N3CCNCC3)c(=O)n2Cc2ccc(Cl)cc2)cc1Cl` [Compound I-0742] the IC50 was 38 nM.

Same assay, conditions: C6BU-1 cells stably expressing human P2X3 receptor, Fluo-3 fluorescence, FDSS 3000
`COC(=O)CCn1c(=O)[nH]/c(=N\c2ccccc2NC(C)=O)n(Cc2ccc(C)cc2)c1=O` [Compound I-1892] was tested, and the IC50 was 113 nM. Compound `O=C(O)c1cc(Oc2ccc(/N=c3\[nH]c(=O)n(CCO)c(=O)n3Cc3ccc(Cl)cc3)cc2)ccn1` [Compound I-1797] has an IC50 of 6 nM. `CCOC(=O)CCn1c(=O)[nH]/c(=N\c2cccc(S(F)(F)(F)(F)F)c2)n(Cc2ccc(Cl)cc2)c1=O` [Compound I-1646] was tested, and the IC50 was 43 nM. Compound `C[C@@H](C(=O)O)[C@H](C)n1c(=O)[nH]/c(=N\c2ccc3c(c2)CCCO3)n(Cc2ccc(Cl)cc2)c1=O` [Compound I-1820] has an IC50 of 204 nM. `CCOC(=O)CCn1c(=O)[nH]/c(=N\c2ccc(O[C@H](C)CC)c(Cl)c2)n(Cc2ccc(C)cc2)c1=O` [Compound I-1020] was tested, and the IC50 was 6 nM. `COC(=O)[C@H](C)[C@H](C)n1c(=O)[nH]/c(=N\c2ccc(OC(C)C)c(Cl)c2)n(Cc2ccc(Cl)cc2)c1=O` [Compound I-0917] gave an IC50 of 19 nM. Compound `CCOC(=O)C1(Cn2c(=O)[nH]/c(=N\c3ccc(OCC(C)C)cc3)n(Cc3ccc(Cl)cc3)c2=O)CC1` [Compound I-1007] has an IC50 of 15 nM.

Same assay, conditions: human P2X3 receptor, Test Example 1
`CCn1c(=O)[nH]/c(=N\c2ccc(Oc3ccc(C(=O)OC)nn3)cc2)n(C[C@H]2CC[C@H](C)CC2)c1=O` [Compound I-2701] gave an IC50 of 1 nM. With `CCCOc1ccc(/N=c2\[nH]c(=O)n(C[C@H](CC)C(=O)OC)c(=O)n2Cc2ccc(C)cc2)cc1` [Compound I-0883] the IC50 was 24 nM. Work on `CCn1c(=O)[nH]/c(=N\c2ccc(Oc3ccnc(CNC)c3)cc2)n(Cc2ccc(Cl)cc2)c1=O` [Compound I-2245] yielded an IC50 of 108 nM. `O=c1[nH]/c(=N\c2ccc(Oc3nccs3)cc2)n(Cc2ccc(Cl)cc2)c(=O)n1C(CO)CO` [Compound I-2541] showed an IC50 of 118 nM. `CCOC(=O)CCn1c(=O)[nH]/c(=N\c2ccc3oc(CC)c(C)c3c2)n(Cc2ccc(Cl)cc2)c1=O` [Compound I-1503] gave an IC50 of 12 nM. `O=c1[nH]/c(=N\c2ccc(Oc3ccsn3)cc2)n(Cc2ccc(Cl)cc2)c(=O)n1CCO` [Compound I-2563] was tested, and the IC50 was 15 nM. `CC(C)Oc1ccc(/N=c2\[nH]c(=O)n(C(C)(C)CC(=O)O)c(=O)n2Cc2ccc(Cl)cc2)cc1F` [Compound I-0830] showed an IC50 of 89 nM.
